Results taken from PMC10065799, “High-throughput profiling of sequence recognition by tyrosine kinases and SH2 domains using bacterial peptide display” (eLife, 2023).

Target: T1, c-Abl kinase domain (Mus musculus, UniProt P00520)
T1 sequence (P00520 242-493 limits assumed): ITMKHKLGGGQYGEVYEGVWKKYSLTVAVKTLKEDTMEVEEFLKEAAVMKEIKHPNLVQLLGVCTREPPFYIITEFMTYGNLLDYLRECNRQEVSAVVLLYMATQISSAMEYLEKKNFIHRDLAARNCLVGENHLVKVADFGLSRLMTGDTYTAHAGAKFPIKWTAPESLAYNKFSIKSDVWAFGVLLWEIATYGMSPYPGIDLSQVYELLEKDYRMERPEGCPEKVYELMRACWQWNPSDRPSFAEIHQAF
Test: pTyr-Var library bacterial peptide display kinase screen (enrichment scores)
Type: biochemical
Conditions: variant versus reference peptide

## DRVALYVAREG [AACS_Y117_I118V]
  c-Abl difference (mean log2 variant - mean log2 reference): -0.3292
